Measurements taken from ChEMBL document CHEMBL3734677, “EVALUATION OF AROMATIC 6-SUBSTITUTED THIENOPYRIMIDINES AS SCAFFOLDS AGAINST PARASITES THAT CAUSE TRYPANOSOMIASIS, LEISHMANIASIS, AND MALARIA” (Medchemcomm, 2015).

Tested on: Trypanosoma brucei brucei
Assay: Antiparasitic activity against bloodstream Trypanosoma brucei bruei CA427 after 48 hrs by cytometry
Assay type: functional, organism-based
Details: CA427, 48 h

- EC50: 0.26 µM
Structure (SMILES): Fc1cccc(COc2ccc(Nc3ncnc4cc(C#C[C@@H]5CCCN5)sc34)cc2Cl)c1
